# Test results published in ChEMBL document CHEMBL1255452, “Skin concentrations and pharmacokinetics of posaconazole after oral administration” (Antimicrob Agents Chemother, 2010).
# Key:
# [1] = Cmax in high fat fed healthy human skin at 400 mg, po bid after 1 day; assay type: ADME, organism-based, Zone of skin; design: dose 400 mg, route oral
# [2] = Cmax in high fat fed healthy human skin at 400 mg, po bid after 8 days; assay type: ADME, organism-based, Zone of skin; design: dose 400 mg, route oral
# [3] = AUC (0 to 12 hrs) in high fat fed healthy human plasma measured per ml of plasma at 400 mg, po bid after 1 day; assay type: ADME, organism-based; design: dose 400 mg, time < 12 hr, route oral
# [4] = AUC (0 to 12 hrs) in high fat fed healthy human plasma measured per ml of plasma at 400 mg, po bid after 8 days; assay type: ADME, organism-based; design: dose 400 mg, time < 12 hr, route oral
# Zone of skin [5] = assay: AUC (0 to 12 hrs) in high fat fed healthy human skin measured per gram of tissue at 400 mg, po bid after 1 day; assay type: ADME, organism-based; design: dose 400 mg, time < 12 hr, route oral; details: in vivo
# Zone of skin [6] = assay: AUC (0 to 12 hrs) in high fat fed healthy human skin measured per gram of tissue at 400 mg, po bid after 8 days; assay type: ADME, organism-based; design: time < 12 hr, dose 400 mg, route oral; details: in vivo
# [7] = AUC (0 to 24 hrs) in high fat fed healthy human plasma measured per ml of plasma at 400 mg, po bid after 1 day; assay type: ADME, organism-based; design: time < 24 hr, dose 400 mg, route oral
# [8] = AUC (0 to 24 hrs) in high fat fed healthy human plasma measured per ml of plasma at 400 mg, po bid after 8 days; assay type: ADME, organism-based; design: time < 24 hr, dose 400 mg, route oral
# Zone of skin [9] = assay: AUC (0 to 24 hrs) in high fat fed healthy human skin measured per gram of tissue at 400 mg, po bid after 1 day; assay type: ADME, organism-based; design: dose 400 mg, time < 24 hr, route oral; details: in vivo
# Zone of skin [10] = assay: AUC (0 to 24 hrs) in high fat fed healthy human skin measured per gram of tissue at 400 mg, po bid after 8 days; assay type: ADME, organism-based; design: dose 400 mg, time < 24 hr, route oral; details: in vivo
# [11] = T>MIC90 in fungus infected patient plasma at 400 mg, po bid after 1 day; assay type: functional
# [12] = T>MIC90 in fungus infected patient plasma at 400 mg, po bid after 8 days; assay type: functional
# [13] = T>MIC90 in fungus infected patient skin at 400 mg, po bid after 1 day; assay type: functional
# [14] = T>MIC90 in fungus infected patient skin at 400 mg, po bid after 8 days; assay type: functional
# Homo sapiens [15] = assay: Toxicity in healthy human assessed as treatment-emergent adverse events at 400 mg, po bid after 8 days; assay type: organism-based; details: in vivo, 192 h
# Homo sapiens [16] = assay: Toxicity in healthy human assessed as treatment related treatment-emergent adverse events at 400 mg, po bid after 8 days; assay type: organism-based; details: in vivo, 192 h
# [17] = Ratio of AUC in skin to plasma in healthy human at 400 mg, po bid after 8 days; assay type: ADME, organism-based, Skin of body; details: skin and plasma
# [18] = Tmax in high fat fed healthy human plasma at 400 mg, po bid after 1 day; assay type: ADME, organism-based
# [19] = Tmax in high fat fed healthy human skin at 400 mg, po bid after 1 day; assay type: ADME, organism-based, Zone of skin
# [20] = Tmax in high fat fed healthy human skin at 400 mg, po bid after 8 days; assay type: ADME, organism-based, Zone of skin
# [21] = Cmax in high fat fed healthy human plasma at 400 mg, po bid after 1 day; assay type: ADME, organism-based; design: dose 400 mg, route oral
# [22] = Cmax in high fat fed healthy human plasma at 400 mg, po bid after 8 days; assay type: ADME, organism-based; design: dose 400 mg, route oral
smiles,measurement,setting,value
CC[C@@H]([C@H](C)O)n1ncn(-c2ccc(N3CCN(c4ccc(OC[C@@H]5CO[C@@](Cn6cncn6)(c6ccc(F)cc6F)C5)cc4)CC3)cc2)c1=O [POSACONAZOLE],Cmax,[1],328 ng/g
same,Cmax,[2],2610 ng/g
same,AUC at 12 h,[3],3630 ng·h/mL
same,AUC at 12 h,[4],18600 ng·h/mL
same,AUC,Zone of skin [5],1760 ng·h/g
same,AUC,Zone of skin [6],23400 ng·h/g
same,AUC at 24 h,[7],7260 ng·h/mL
same,AUC at 24 h,[8],37200 ng·h/mL
same,AUC,Zone of skin [9],3520 ng·h/g
same,AUC,Zone of skin [10],46800 ng·h/g
same,T>MIC90,[11],8.13 h
same,T>MIC90,[12],12 h
same,T>MIC90,[13],2.24 h
same,T>MIC90,[14],12 h
same,Activity,Homo sapiens [15],57%
same,Activity,Homo sapiens [16],37%
same,Kp at 192 h,[17],1.26
same,Tmax,[18],8 h
same,Tmax,[19],12 h
same,Tmax,[20],3 h
same,Cmax,[21],453 ng/mL
same,Cmax,[22],1740 ng/mL
